Laboratory results: patent publication US20110081674A1, “CONTINUOUS-FLOW DEFORMABILITY-BASED CELL SEPARATION” (priority 2009, published 2011)

System: red blood cells (RBCs)
Experiment: Deformability and mobility of glutaraldehyde-treated red blood cells at slits of the microfluidic device
Assay type: cell-based
From the text: FIG. 4 illustrates embodiments of: A. red blood cells (RBCs) aligned at the entrance of a 1 μm slit under a pressure difference of 40 kPa. […] Because the surface-area to volume ratio of RBCs is constrained, they are unable to pass through slits less than a certain gap width apart. B. RBCs treated with 0.1% Glutaraldehyde (GA) maintain their biconcave structure at the entrance of 2 μm slits under a pressure difference of 40 kPa. Glutaraldehyde cross-links proteins in the membrane and in the cytosol of RBCs, making them stiffer. […] C. Mobility vs. GA concentration. […] The slit gap is the vertical gap that defines the spacing between the two substrates at the trenches area. These are the shallow regions of a unit of the sorter.
With reference to FIG. 4A, a solution of PBS 1× and 0.2% w/v Pluronic F108 (a surfactant) and Bovine Serum Albumin 1% w/v (another surfactant) was prepared. The device was filled with this solution by applying pressure to one of the reservoirs. 1 μL of whole blood was mixed with 100 μL of this solution. The mixture was injected into the entrance reservoir of the device shown by using a syringe. The pressure difference between the two reservoirs was 40 kPa and was generated by using a pressure regulator. The cell concentration was approximately 0.5% hematocrit. Mobility was measured by tracking individual cells over a distance of 100 μm.

O=CCCCC=O [Glutaraldehyde] was tested, and the “Ability of treated RBCs to deform and pass through slits” value (RBCs treated with 0.1% Glutaraldehyde, 2 μm slits, pressure difference 40 kPa) was “unable to pass through 2 μm slits” and the “Mobility vs. GA concentration” value (higher GA concentration, given ambient fluid velocity) was “decreased mobility”.
